Data published in patent publication US12264170B2, “Antimicrobial organosilanes” (TOPIKOS SCIENTIFIC, INC., priority 2019, dated 2025).
Converted amounts (≈) assume the structure as drawn.

Key:
Format in all cases: cell-based
[1] = system: Cladosporium herbarum ATCC MYA-4682; experiment: MIC microdilution assay; conditions: Cladosporium herbarum; C. herbarum ATCC MYA-4682; RPMI media; 25±2° C. 3 to 5 days; two values given; read-out: MIC
Experimental: Strain numbers starting with “ATCC” were acquired from the American Type Culture Collection (Manassas, VA), while strain numbers starting with “CDC” were acquired from the Centers for Disease Control and Prevention (Atlanta, GA). All strains were maintained as −80° C. frozen glycerol stocks. S. aureus and P. aeruginosa were grown overnight on Tryptic Soy Agar (TSA) plates at 35±2° C., ambient atmosphere, while S. pyogenes was grown overnight on TSA+5% defibrinated sheep blood at 35±2° C., 5% CO2. All fungal species (i.e. C. albicans, C. auris and C. herbarum) were grown on Sabouraud Dextrose Agar (SDA) plates. C. herbarum was grown at 25±2° C. for 5 to 7 days, while all other fungal strains were grown at 35±2° C. overnight.
Test articles Compound 2 (batch #2G13A0.368) and Compound 23 (batch #2G17A0.372) were received and stored at 4° C. The antibiotic Tobramycin and antifungal Amphotericin B were used as quality control (QC) compounds for the MIC assay. […]
All bacterial-strain MIC 96-well plates were incubated at 35±2° C. for 18 to 20 hours, while all Candida MIC 96-well plates were incubated at 35±2° C. for 24 to 48 hours. […] After incubation, the 96-well plates were examined visually and on a spectrophotometer at absorbance OD650. […]

[2] = system: Pseudomonas aeruginosa ATCC 27853; experiment: MIC microdilution assay (Example 32); conditions: Pseudomonas aeruginosa, ATCC27853; P. aeruginosa ATCC 27853 (quality control); CAMHB; 35±2° C. 18 to 20 hours; two values given; read-out: MIC
Experimental: (§1) Strain IDs starting with “ATCC” were acquired from the American Type Culture Collection (Manassas, VA), strain IDs starting with “Eurofins” were acquired from Eurofins (Herndon, VA), while strain IDs starting with “CDC” were acquired from the Centers for Disease Control and Prevention (Atlanta, GA). All strains were maintained as −80° C. frozen glycerol stocks. S. aureus and P. aeruginosa were grown overnight on Tryptic Soy Agar (TSA) plates at 35±2° C., ambient atmosphere, while S. pyogenes was grown overnight on TSA+5% defibrinated sheep blood at 35±2° C., 5% CO2. C. jejuni was grown for 48 hours on TSA+5% defibrinated sheep blood at 35±2° C., in a microaerophilic environment generated by CampyGen sachet. All fungal species (i.e. C. albicans and C. auris) were grown overnight on Sabouraud Dextrose Agar (SDA) plates at 35±2° C., ambient atmosphere.
(§2) Test article Compound 1 (batch #7G30A9.203) was stored at 4° C. The antibiotic Tobramycin and antifungal Amphotericin B were used as quality control (QC) compounds for the MIC assay. Stock solutions of 3.2 mg/mL Tobramycin (Sigma-Aldrich, cat #T1783-500MG) and 3.2 mg/mL Amphotericin B (CP Lab Chemicals, cat #TOK-A007-1G) were prepared in sterile ultrapure water.
(§3) For bacteria strains, a few colonies of each strain were collected with a sterile swab and used to make a McFarland 0.5 standard solution (approximately 1×10^8 CFU/mL) in sterile PBS. The McFarland was then diluted 1:180 in Cation Adjusted Muller-Hinton Broth (CAMHB) for S. aureus and P. aeruginosa. S. pyogenes McFarland was diluted 1:180 in CAMHB+5% defibrinated sheep blood, while C. jejuni McFarland was diluted 1:180 in CAMHB+5% laked horse blood. 90 μL of this inoculum was combined with 10 μL of the 10× test article in a 96-well plate for a final concentration of 1×.
(§4) Except for C. jejuni, all bacterial-strain MIC 96-well plates were incubated at 35±2° C. for 18 to 20 hours, ambient atmosphere. C. jejuni was incubated at 35±2° C. for 48 hours, under microaerophilic condition. All Candida MIC 96-well plates were incubated at 35±2° C. for 24 to 48 hours, ambient atmosphere, until growth in control wells were observed. After incubation, the 96-well plates were examined visually and on a spectrophotometer at absorbance OD650. MIC is defined as the lowest concentration of a compound in which no visible growth is observed.

[3] = system: Streptococcus pyogenes Eurofins 2065755; experiment: MIC microdilution assay (Example 32); conditions: Streptococcus pyogenes; S. pyogenes Eurofins 2065755; CAMHB+5% defibrinated sheep blood; 35±2° C. 18 to 20 hours; two values given; read-out: MIC
Experimental: as §1, §2, §3, §4

[4] = system: Acinetobacter baumannii Eurofins 1674627; experiment: MIC microdilution assay (Example 32); conditions: Acinetobacter baumannii; A. baumannii Eurofins 1674627; 35±2° C. 18 to 20 hours; two values given; read-out: MIC
Experimental: as §1, §2, §3, §4

[5] = system: Pseudomonas aeruginosa CDC 0248; experiment: MIC microdilution assay (Example 32); conditions: Pseudomonas aeruginosa, CDC0248; P. aeruginosa CDC 0248; CAMHB; 35±2° C. 18 to 20 hours; two values given; read-out: MIC
Experimental: as §1, §2, §3, §4

[6] = system: Campylobacter jejuni CDC 0413; experiment: MIC microdilution assay (Example 32); conditions: Campylobacter jejuni, CDC0413; C. jejuni CDC 0413; CAMHB+5% laked horse blood; 35±2° C. 48 hours, microaerophilic; two values given; read-out: MIC
Experimental: as §1, §2, §3, §4

[7] = system: Pseudomonas aeruginosa Eurofins 1674623; experiment: MIC microdilution assay (Example 32); conditions: Pseudomonas aeruginosa; P. aeruginosa Eurofins 1674623; CAMHB; 35±2° C. 18 to 20 hours; two values given; read-out: MIC
Experimental: as §1, §2, §3, §4

NC[C@H]1O[C@H](O[C@H]2[C@H](O)[C@@H](O[C@H]3O[C@H](CO)[C@@H](O)[C@H](N)[C@H]3O)[C@H](N)C[C@@H]2N)[C@H](N)C[C@@H]1O [Tobramycin]
MIC [1]: > 32 µg/mL
MIC [2]: 0.25 µg/mL (≈ 0.535 µM)
MIC [3]: 16 µg/mL (≈ 34.2 µM)
MIC [4]: 1 µg/mL (≈ 2.14 µM)
MIC [5]: > 32 µg/mL
MIC [6]: > 32 µg/mL
MIC [7]: > 32 µg/mL
